Measured values: PMC8632988, “Inhibition of SYK and cSrc kinases can protect bone and cartilage in preclinical models of osteoarthritis and rheumatoid arthritis” (Scientific Reports, 2021)
Where two headings read alike, the source gives them in different places.

Legend:
Experiment in all cases: Kinase selectivity profile assay
Assay type in all cases: biochemical
TAOK3/JIK = target: T1, TAOK3/JIK (Homo sapiens, UniProt Q9H2K8); conditions: 500 nM; relative to DMSO; read-out: Residual enzymatic activity
T1 construct: purchased Reaction Biology Corporation
In short: (§1)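 Radiometric kinase assay run by a standard protocol. Unbound phosphate was removed by washing filters in phosphoric acid, and product radioactivity gave percent remaining kinase activity versus DMSO vehicle reactions. Run in duplicate.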

ZAP70 = target: T2, ZAP70 (Homo sapiens, UniProt P43403); conditions: 500 nM; relative to DMSO; read-out: Residual enzymatic activity
T2 construct: purchased Reaction Biology Corporation
In short: as §1

CAMK2a = target: T3, CAMK2a (Homo sapiens, UniProt Q9UQM7); conditions: 500 nM; relative to DMSO; read-out: Residual enzymatic activity
T3 construct: purchased Reaction Biology Corporation
In short: as §1

c-Kit = target: T4, c-Kit (Homo sapiens, UniProt P10721); conditions: 500 nM, relative to DMSO; for remaining activity at 0.5 µM: read-out: Residual enzymatic activity
T4 construct: purchased Reaction Biology Corporation
In short: as §1

LKB1 = target: T5, LKB1 (Homo sapiens, UniProt Q15831); conditions: 500 nM; relative to DMSO; read-out: Residual enzymatic activity
T5 construct: purchased Reaction Biology Corporation
In short: as §1

EPHB4 = target: T6, EPHB4 (Homo sapiens, UniProt P54760); conditions: 500 nM, relative to DMSO; for remaining activity at 0.5 µM: read-out: Residual enzymatic activity
T6 construct: purchased Reaction Biology Corporation
T6 sequence (P54760 16-987): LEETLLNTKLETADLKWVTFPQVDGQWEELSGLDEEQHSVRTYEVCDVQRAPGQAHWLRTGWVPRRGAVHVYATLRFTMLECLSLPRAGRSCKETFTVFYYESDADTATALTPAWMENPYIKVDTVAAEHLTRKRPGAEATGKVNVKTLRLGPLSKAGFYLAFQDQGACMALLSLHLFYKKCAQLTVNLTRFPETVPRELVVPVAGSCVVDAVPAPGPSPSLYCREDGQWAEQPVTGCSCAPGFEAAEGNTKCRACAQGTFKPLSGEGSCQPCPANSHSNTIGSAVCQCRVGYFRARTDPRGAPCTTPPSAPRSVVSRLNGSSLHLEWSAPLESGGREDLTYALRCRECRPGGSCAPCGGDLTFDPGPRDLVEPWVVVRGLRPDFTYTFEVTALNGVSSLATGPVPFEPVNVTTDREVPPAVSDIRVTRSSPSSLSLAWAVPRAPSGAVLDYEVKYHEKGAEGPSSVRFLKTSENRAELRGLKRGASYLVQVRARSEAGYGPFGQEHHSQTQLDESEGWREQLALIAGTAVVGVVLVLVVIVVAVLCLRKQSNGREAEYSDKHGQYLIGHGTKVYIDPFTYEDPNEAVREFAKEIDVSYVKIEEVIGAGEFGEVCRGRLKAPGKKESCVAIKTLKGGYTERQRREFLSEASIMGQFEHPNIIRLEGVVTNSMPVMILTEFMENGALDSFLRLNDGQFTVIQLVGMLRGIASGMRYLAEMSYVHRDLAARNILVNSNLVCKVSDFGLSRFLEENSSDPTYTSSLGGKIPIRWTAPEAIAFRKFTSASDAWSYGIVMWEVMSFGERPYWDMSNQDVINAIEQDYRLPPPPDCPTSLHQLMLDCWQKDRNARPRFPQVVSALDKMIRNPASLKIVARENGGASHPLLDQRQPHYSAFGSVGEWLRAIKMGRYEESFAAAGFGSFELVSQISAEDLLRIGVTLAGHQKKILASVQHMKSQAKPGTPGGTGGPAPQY
In short: as §1

PKD2/PRKD2 = target: T7, PKD2/PRKD2 (Homo sapiens, UniProt Q9BZL6); conditions: 500 nM; relative to DMSO; read-out: Residual enzymatic activity
T7 construct: purchased Reaction Biology Corporation
In short: as §1

TAOK1 = target: T8, TAOK1 (Homo sapiens, UniProt Q7L7X3); conditions: 500 nM; relative to DMSO; read-out: Residual enzymatic activity
T8 construct: purchased Reaction Biology Corporation
In short: as §1

STK25/YSK1 = target: T9, STK25/YSK1 (Homo sapiens, UniProt O00506); conditions: 500 nM; relative to DMSO; read-out: Residual enzymatic activity
T9 construct: purchased Reaction Biology Corporation
In short: as §1

GRK7 = target: T10, GRK7 (Homo sapiens, UniProt Q8WTQ7); conditions: 500 nM; relative to DMSO; read-out: Residual enzymatic activity
T10 construct: purchased Reaction Biology Corporation
In short: as §1

VRK2 = target: T11, VRK2 (Homo sapiens, UniProt Q86Y07); conditions: read-out: Residual enzymatic activity
T11 construct: purchased Reaction Biology Corporation
In short: as §1

CDC7/DBF4 = target: T12, CDC7/DBF4 (Homo sapiens, UniProt O00311); conditions: 500 nM; relative to DMSO; read-out: Residual enzymatic activity
T12 construct: purchased Reaction Biology Corporation
In short: as §1

RSK2 = target: T13, RSK2 (Homo sapiens, UniProt P51812); conditions: 500 nM; relative to DMSO; read-out: Residual enzymatic activity
T13 construct: purchased Reaction Biology Corporation
In short: as §1

CDK3/cyclin E = target: T14, CDK3/cyclin E (Homo sapiens, UniProt Q00526); conditions: 500 nM; relative to DMSO; read-out: Residual enzymatic activity
T14 construct: purchased Reaction Biology Corporation
In short: as §1

ERBB2/HER2 = target: T15, ERBB2/HER2 (Homo sapiens, UniProt P04626); conditions: 500 nM; relative to DMSO; read-out: Residual enzymatic activity
T15 construct: purchased Reaction Biology Corporation
In short: as §1

PKAcg = target: T16, PKAcg (Homo sapiens, UniProt P22612); conditions: 500 nM; relative to DMSO; read-out: Residual enzymatic activity
T16 construct: purchased Reaction Biology Corporation
In short: as §1

MEKK2 = target: T17, MEKK2 (Homo sapiens, UniProt Q9Y2U5); conditions: 500 nM; relative to DMSO; read-out: Residual enzymatic activity
T17 construct: purchased Reaction Biology Corporation
In short: as §1

IGF1R = target: T18, IGF1R (Homo sapiens, UniProt P08069); conditions: 500 nM; relative to DMSO; read-out: Residual enzymatic activity
T18 construct: purchased Reaction Biology Corporation
In short: as §1

GRK5 = target: T19, GRK5 (Homo sapiens, UniProt P34947); conditions: 500 nM; relative to DMSO; read-out: Residual enzymatic activity
T19 construct: purchased Reaction Biology Corporation
In short: as §1

DAPK1 = target: T20, DAPK1 (Homo sapiens, UniProt P53355); conditions: 500 nM; relative to DMSO; read-out: Residual enzymatic activity
T20 construct: purchased Reaction Biology Corporation
In short: as §1

DCAMKL2 = target: T21, DCAMKL2 (Homo sapiens, UniProt Q8N568); conditions: 500 nM; relative to DMSO; read-out: Residual enzymatic activity
T21 construct: purchased Reaction Biology Corporation
In short: as §1

MEK2 = target: T22, MEK2 (Homo sapiens, UniProt P36507); conditions: 500 nM; relative to DMSO; read-out: Residual enzymatic activity
T22 construct: purchased Reaction Biology Corporation
In short: as §1

AXL = target: T23, AXL (Homo sapiens, UniProt P30530); conditions: 500 nM; relative to DMSO; read-out: Residual enzymatic activity
T23 construct: purchased Reaction Biology Corporation
In short: as §1

MNK1 = target: T24, MNK1 (Homo sapiens, UniProt Q9BUB5); conditions: 500 nM; relative to DMSO; read-out: Residual enzymatic activity
T24 construct: purchased Reaction Biology Corporation
In short: as §1

ERK5/MAPK7 = target: T25, ERK5/MAPK7 (Homo sapiens, UniProt Q13164); conditions: 500 nM; relative to DMSO; read-out: Residual enzymatic activity
T25 construct: purchased Reaction Biology Corporation
In short: as §1

EPHA7 = target: T26, EPHA7 (Homo sapiens, UniProt Q15375); conditions: 500 nM, relative to DMSO; for remaining activity at 0.5 µM: read-out: Residual enzymatic activity
T26 construct: purchased Reaction Biology Corporation
In short: as §1

TLK1 = target: T27, TLK1 (Homo sapiens, UniProt Q9UKI8); conditions: 500 nM; relative to DMSO; read-out: Residual enzymatic activity
T27 construct: purchased Reaction Biology Corporation
In short: as §1

T4 sequence (P10721 26-976): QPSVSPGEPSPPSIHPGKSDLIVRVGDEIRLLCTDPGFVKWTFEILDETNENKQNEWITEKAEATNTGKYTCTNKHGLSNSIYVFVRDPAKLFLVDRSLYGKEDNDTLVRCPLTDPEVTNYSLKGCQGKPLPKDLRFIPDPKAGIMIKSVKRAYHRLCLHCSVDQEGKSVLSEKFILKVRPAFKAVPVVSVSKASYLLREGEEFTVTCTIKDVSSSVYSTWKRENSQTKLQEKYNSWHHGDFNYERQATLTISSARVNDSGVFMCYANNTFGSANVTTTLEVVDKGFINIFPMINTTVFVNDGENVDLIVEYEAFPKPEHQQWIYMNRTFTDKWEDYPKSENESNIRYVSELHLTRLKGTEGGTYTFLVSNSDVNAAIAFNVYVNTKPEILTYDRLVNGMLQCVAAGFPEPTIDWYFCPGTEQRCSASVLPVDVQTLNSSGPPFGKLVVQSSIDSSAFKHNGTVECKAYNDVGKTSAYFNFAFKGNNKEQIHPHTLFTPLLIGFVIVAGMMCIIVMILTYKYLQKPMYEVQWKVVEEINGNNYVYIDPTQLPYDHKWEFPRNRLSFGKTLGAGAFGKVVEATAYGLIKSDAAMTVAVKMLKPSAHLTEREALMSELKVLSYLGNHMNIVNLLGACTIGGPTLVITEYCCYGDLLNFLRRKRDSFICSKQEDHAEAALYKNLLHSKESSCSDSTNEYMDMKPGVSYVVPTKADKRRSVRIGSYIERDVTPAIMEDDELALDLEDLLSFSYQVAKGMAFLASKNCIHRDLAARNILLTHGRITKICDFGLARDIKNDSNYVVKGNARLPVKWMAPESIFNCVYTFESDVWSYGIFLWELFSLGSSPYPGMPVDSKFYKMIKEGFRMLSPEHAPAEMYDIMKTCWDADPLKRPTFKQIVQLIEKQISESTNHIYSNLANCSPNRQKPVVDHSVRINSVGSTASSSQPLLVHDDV
T26 sequence (Q15375 28-998): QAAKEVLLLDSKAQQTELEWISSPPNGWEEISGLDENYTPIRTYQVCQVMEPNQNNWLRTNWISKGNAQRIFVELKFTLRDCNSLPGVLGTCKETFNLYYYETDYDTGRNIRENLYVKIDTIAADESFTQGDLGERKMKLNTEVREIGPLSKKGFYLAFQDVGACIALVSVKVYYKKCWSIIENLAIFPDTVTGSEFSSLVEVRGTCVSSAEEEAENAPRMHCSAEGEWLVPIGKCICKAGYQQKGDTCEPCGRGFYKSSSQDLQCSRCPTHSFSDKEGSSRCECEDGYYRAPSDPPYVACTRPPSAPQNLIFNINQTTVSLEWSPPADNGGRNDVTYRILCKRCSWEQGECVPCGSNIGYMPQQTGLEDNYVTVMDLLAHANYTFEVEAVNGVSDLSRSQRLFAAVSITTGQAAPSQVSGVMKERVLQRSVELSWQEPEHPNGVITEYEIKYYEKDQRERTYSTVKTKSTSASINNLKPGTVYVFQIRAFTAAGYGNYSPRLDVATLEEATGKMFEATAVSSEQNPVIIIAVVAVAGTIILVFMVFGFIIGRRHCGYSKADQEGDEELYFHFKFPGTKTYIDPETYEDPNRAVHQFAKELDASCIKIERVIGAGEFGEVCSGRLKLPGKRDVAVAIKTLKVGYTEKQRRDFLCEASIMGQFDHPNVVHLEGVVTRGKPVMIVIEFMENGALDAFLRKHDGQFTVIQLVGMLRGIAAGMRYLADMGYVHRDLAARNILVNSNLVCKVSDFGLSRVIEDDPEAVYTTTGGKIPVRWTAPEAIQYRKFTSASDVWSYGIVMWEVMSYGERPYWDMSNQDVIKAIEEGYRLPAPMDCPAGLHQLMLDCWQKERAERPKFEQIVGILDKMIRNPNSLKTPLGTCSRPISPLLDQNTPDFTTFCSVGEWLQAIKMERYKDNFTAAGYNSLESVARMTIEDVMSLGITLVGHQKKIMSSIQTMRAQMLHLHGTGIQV
T18 sequence (P08069 31-1367): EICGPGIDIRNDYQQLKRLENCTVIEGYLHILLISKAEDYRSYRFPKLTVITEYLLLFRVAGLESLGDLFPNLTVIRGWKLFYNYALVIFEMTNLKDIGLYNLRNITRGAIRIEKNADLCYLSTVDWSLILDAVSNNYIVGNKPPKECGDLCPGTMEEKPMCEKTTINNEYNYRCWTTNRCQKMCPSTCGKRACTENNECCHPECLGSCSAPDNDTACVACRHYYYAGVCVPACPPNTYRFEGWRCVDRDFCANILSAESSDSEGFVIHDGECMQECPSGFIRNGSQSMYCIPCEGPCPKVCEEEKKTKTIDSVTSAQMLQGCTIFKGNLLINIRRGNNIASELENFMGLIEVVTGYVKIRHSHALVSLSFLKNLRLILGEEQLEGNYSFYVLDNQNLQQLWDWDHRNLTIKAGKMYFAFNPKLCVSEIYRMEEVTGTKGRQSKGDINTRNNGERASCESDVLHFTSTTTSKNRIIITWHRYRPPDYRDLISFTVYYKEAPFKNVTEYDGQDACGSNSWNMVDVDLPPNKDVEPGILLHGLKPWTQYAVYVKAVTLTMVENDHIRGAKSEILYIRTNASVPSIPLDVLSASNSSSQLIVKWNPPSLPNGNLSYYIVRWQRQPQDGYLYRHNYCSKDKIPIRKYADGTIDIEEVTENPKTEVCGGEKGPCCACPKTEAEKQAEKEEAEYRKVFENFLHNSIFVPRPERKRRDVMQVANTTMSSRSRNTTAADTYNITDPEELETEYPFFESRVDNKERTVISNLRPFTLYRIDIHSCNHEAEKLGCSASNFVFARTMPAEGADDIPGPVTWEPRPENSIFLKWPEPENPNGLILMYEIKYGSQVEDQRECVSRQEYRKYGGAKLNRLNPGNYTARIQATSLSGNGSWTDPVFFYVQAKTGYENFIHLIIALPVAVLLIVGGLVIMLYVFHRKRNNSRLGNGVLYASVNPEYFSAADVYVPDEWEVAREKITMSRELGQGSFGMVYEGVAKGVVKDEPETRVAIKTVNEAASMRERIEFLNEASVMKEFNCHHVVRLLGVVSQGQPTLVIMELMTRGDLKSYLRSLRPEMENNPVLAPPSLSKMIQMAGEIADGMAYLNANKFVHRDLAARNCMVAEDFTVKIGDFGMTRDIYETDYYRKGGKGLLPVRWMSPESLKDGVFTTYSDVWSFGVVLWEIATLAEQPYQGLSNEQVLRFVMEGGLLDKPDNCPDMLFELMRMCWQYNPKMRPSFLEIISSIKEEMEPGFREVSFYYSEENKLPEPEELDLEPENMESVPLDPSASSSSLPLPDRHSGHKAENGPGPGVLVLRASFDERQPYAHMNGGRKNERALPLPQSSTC
T1 sequence (Q9H2K8 whole entry): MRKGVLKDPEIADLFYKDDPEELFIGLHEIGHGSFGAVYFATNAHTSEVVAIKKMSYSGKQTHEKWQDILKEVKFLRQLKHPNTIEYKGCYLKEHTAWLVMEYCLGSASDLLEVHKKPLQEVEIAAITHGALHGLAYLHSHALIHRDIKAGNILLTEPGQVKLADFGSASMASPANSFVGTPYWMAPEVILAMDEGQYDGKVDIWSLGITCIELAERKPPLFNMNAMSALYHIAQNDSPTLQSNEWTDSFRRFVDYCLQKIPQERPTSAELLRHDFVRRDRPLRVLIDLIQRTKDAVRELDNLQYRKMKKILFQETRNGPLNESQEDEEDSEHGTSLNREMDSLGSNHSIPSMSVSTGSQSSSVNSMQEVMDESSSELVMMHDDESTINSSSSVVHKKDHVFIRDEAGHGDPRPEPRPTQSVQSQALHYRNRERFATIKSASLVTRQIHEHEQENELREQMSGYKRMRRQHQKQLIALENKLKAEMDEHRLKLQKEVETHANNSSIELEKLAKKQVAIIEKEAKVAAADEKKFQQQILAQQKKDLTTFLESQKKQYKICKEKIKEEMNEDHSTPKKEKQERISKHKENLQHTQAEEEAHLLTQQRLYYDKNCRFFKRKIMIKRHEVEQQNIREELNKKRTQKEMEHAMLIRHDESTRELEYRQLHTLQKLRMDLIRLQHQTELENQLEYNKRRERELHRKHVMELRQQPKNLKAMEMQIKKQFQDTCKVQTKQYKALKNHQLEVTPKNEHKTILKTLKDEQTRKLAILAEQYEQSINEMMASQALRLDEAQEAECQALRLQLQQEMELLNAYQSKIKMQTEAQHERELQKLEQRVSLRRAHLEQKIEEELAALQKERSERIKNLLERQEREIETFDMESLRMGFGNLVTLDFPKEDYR
T25 sequence (Q13164 whole entry): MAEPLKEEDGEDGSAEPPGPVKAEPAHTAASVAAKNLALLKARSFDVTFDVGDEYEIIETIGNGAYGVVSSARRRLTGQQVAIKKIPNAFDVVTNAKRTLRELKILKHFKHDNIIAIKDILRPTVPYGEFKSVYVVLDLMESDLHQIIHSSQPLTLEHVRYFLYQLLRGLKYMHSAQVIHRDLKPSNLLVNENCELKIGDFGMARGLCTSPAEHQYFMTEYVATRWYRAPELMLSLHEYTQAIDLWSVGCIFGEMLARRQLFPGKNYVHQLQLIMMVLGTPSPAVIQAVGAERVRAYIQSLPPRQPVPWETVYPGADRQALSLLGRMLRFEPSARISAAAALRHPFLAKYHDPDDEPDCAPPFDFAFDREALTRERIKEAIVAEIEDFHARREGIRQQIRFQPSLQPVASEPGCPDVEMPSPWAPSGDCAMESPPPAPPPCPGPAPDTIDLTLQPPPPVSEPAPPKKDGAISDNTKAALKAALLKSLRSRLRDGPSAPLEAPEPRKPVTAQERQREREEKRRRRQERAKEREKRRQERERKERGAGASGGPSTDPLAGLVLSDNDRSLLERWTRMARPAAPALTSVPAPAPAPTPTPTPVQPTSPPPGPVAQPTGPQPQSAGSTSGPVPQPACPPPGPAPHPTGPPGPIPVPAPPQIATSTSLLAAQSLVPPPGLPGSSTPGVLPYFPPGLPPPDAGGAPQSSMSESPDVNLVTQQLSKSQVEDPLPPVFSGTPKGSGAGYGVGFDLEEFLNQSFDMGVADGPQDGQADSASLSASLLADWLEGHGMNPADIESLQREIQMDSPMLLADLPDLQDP

SMILES	remaining activity at 0.5 µM (TAOK3/JIK)	remaining activity at 0.5 µM (ZAP70)	remaining activity at 0.5 µM (CAMK2a)	remaining activity at 0.5 µM (c-Kit)	remaining activity at 0.5 µM (LKB1)	remaining activity at 0.5 µM (EPHB4)	remaining activity at 0.5 µM (PKD2/PRKD2)	remaining activity at 0.5 µM (TAOK1)	remaining activity at 0.5 µM (STK25/YSK1)	remaining activity at 0.5 µM (GRK7)	remaining activity at 0.5 µM (CDC7/DBF4)	remaining activity at 0.5 µM (RSK2)	remaining activity at 0.5 µM (CDK3/cyclin E)	remaining activity at 0.5 µM (ERBB2/HER2)	remaining activity at 0.5 µM (PKAcg)	remaining activity at 0.5 µM (MEKK2)	remaining activity at 0.5 µM (IGF1R)	remaining activity at 0.5 µM (GRK5)	remaining activity at 0.5 µM (DAPK1)	remaining activity at 0.5 µM (DCAMKL2)	further results
COc1cc(Nc2ncnc(Nc3cc4c(cn3)NC(=O)C(C)(C)O4)n2)cc(OC)c1OC [MT-SYK-03]	108%	93.4%	94.1%	> 54%	101%	> 54%	102%	102%	105%	99.7%	102%	104%	99%	82.2%	106%	106%	90%	103%	113%	99.1%	Residual enzymatic activity (c-Kit): 69.2%; Residual enzymatic activity (EPHB4): 64.6%; remaining activity at 0.5 µM (VRK2; 500 nM, relative to DMSO): 129%; remaining activity at 0.5 µM (MEK2): 97.2%; remaining activity at 0.5 µM (AXL): 74.3%; remaining activity at 0.5 µM (MNK1): 91.2%; remaining activity at 0.5 µM (ERK5/MAPK7): 92.2%; Residual enzymatic activity (EPHA7): 58.4%; remaining activity at 0.5 µM (EPHA7): > 54%; remaining activity at 0.5 µM (TLK1): 101%
COc1cc(Nc2ncc(F)c(Nc3ccc4c(n3)NC(=O)C(C)(C)O4)n2)cc(OC)c1OC [R406, reference compound]	77.2%	43.5%	94.4%	37.1%	69.3%	51.2%	75.2%	78.1%	90.7%	89.6%	82.6%	56.9%	90.3%	80.5%	91.7%	56.8%	60.3%	96.4%	65.2%	91.8%	remaining activity at 0.5 µM (VRK2): 131%; remaining activity at 0.5 µM (MEK2): 83.5%; remaining activity at 0.5 µM (AXL): 44.5%; remaining activity at 0.5 µM (MNK1): 61.5%; remaining activity at 0.5 µM (ERK5/MAPK7): 88.2%; remaining activity at 0.5 µM (EPHA7): 10.5%; remaining activity at 0.5 µM (TLK1): 75.1%
